Reference: PubChem BioAssay (NCI)
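Following 48 hours of exposure in 96-well plates, responses at five concentrations were used to interpolate endpoints linearly. GI50: concentration for 50% inhibition of growth. TGI: concentration producing complete growth inhibition.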

Experiments:
Test in all cases: NCI-60 cell line screen, 48 h
SW-620 colon = system: SW-620 colon
M14 melanoma = system: M14 melanoma
SK-MEL-28 melanoma = system: SK-MEL-28 melanoma
SF-295 CNS = system: SF-295 CNS
A549 NSCLC = system: A549 NSCLC
HCT-15 colon = system: HCT-15 colon
SF-268 CNS = system: SF-268 CNS
COLO 205 colon = system: COLO 205 colon
HOP-92 NSCLC = system: HOP-92 NSCLC
NCI/ADR-RES ovarian = system: NCI/ADR-RES ovarian

Row | Structure (SMILES) | TGI (SW-620 colon) [µM] | TGI (M14 melanoma) [µM] | TGI (SK-MEL-28 melanoma) [µM] | TGI (SF-295 CNS) [µM] | TGI (A549 NSCLC) [µM] | TGI (HCT-15 colon) [µM] | TGI (SF-268 CNS) [µM] | TGI (COLO 205 colon) [µM] | GI50 (SW-620 colon) [µM] | GI50 (M14 melanoma) [µM] | GI50 (SK-MEL-28 melanoma) [µM] | GI50 (SF-295 CNS) [µM] | GI50 (HOP-92 NSCLC) [µM] | TGI (HOP-92 NSCLC) [µM] | GI50 (A549 NSCLC) [µM] | GI50 (HCT-15 colon) [µM] | GI50 (SF-268 CNS) [µM] | GI50 (COLO 205 colon) [µM] | GI50 (NCI/ADR-RES ovarian) [µM] | TGI (NCI/ADR-RES ovarian) [µM]
1 | O=C(CC1(O)C(=O)Nc2c(Cl)ccc(Cl)c21)c1ccc2ccccc2c1 (stereo not given) | 12.5 | 21.3 | 32.6 | 27.7 | 39.6 | 27 | 36.2 | 28.7 |  |  |  |  |  |  |  |  |  |  |  | 
2 | CC(=O)[CH-]C(=O)c1ccccc1.CC(=O)[CH-]C(=O)c1ccccc1.CC(C)CCCC(C)[C@H]1CCC2[C@@H]3CC=C4C[C@@H]([O-])CC[C@]4(C)C3CC[C@@]21C.CC[O-].[Ti+4] (stereo not given in full) | > 100 | > 100 | > 100 | > 100 | > 100 | > 100 | > 100 | > 100 | 46.6 | 48.3 | 30.3 | 40.9 | 33.8 | 94 | > 100 | 53.8 | 50.2 | 48.5 |  | 
3 | Cc1cc(S(N)(=O)=O)c(S/C(CC(C)C)=N\Nc2ccc([N+](=O)[O-])cc2)cc1Cl | 29.9 | 16.5 | 27.8 | 5.7 | 27.2 | 31.2 | 23.1 | 20.9 | 8.82 | 4.99 | 13.9 | 2.31 |  |  | 9.46 | 5.22 | 7.21 | 6.46 | 5.9 | 19.2
4 | O=C(c1ccco1)c1nc2cc(Cl)ccc2[n+]([O-])c1C(F)(F)F | > 100 | > 100 | > 100 | > 100 | > 100 | > 100 | > 100 | > 100 | 39.1 | 59.1 | 90.1 | 94 |  |  | 63.3 | 32.7 | 71.1 | > 100 | 52.4 | > 100
5 | Cn1c(=O)nc2n(-c3cccc(Br)c3)c3ccccc3nc-2c1=O | 8.53 | 10.1 |  | 18.6 | 14.5 | 15.1 | 23.4 | 9.64 |  |  |  |  |  |  |  |  |  |  |  | 
6 | COC(=O)/C([Se]c1c(C)cc(C)cc1C)=C(\[Se]c1c(C)cc(C)cc1C)C(=O)OC | > 100 | > 100 |  | > 100 | > 100 | > 100 | > 100 | > 100 |  |  |  |  |  | > 100 |  |  |  |  |  | 
7 | Cc1ccccc1C(=O)c1ccccc1O | > 100 | > 100 | > 100 | > 100 | > 100 | > 100 | > 100 | > 100 |  |  |  |  |  | > 100 |  |  |  |  |  | 
8 | C#CCC(Cc1cnc2nc(N)nc(N)c2n1)c1ccc(C(=O)N[C@@H](CCC(=O)O)C(=O)O)cc1 (stereo not given in full) | > 100 | > 100 | > 100 | > 100 | > 100 | > 100 | > 100 | > 100 | < 0.01 | < 0.01 | 0.0901 | < 0.01 |  |  | < 0.01 | < 0.01 | < 0.01 | < 0.0159 | < 0.01 | > 100
9 | CN(C)c1ccc([O][Bi]([Cl])[Cl])cc1 | > 100 | > 100 | > 100 | > 100 | > 100 | > 100 |  | > 100 | > 100 | 87 | > 100 | > 100 |  |  | > 100 | > 100 |  | > 100 |  | 
10 | CCc1c(C#N)c(S[C@@H](C(N)=O)c2ccccc2)nc(N(C)C)c1C#N | > 100 | > 100 |  | 55.3 |  | > 100 | > 100 | > 100 | > 100 | > 100 |  | 3.81 |  |  |  | > 100 | 5.07 | > 100 |  | 
11 | O=C(CO)CC(=O)C(=O)Nc1ccccc1 | > 100 | > 100 | > 100 | > 100 | > 100 | > 100 | > 100 | > 100 |  |  |  |  |  | > 100 |  |  |  |  |  | 
12 | O=[N+]([O-])c1nccn1CC(O)CN1CC1 (stereo not given) | > 100 | > 100 | > 100 | > 100 | > 100 | > 100 | > 100 | > 100 |  |  |  |  |  |  |  |  |  |  |  | 
13 | CC(=O)[CH-]C(=O)c1ccccc1.CC(=O)[CH-]C(=O)c1ccccc1.[Eu+3].[OH-].[OH3+] | > 100 | > 100 | > 100 | > 100 | > 100 | > 100 |  | > 100 | > 100 | > 100 | > 100 | > 100 | 7.44 | 99.7 | > 100 | > 100 |  | > 100 |  | 
14 | Oc1cc(O)c2c(-c3c(O)c(-c4ccc(O)c(O)c4)[o+]c4cc(O)cc(O)c34)c(O)c(-c3ccc(O)c(O)c3)[o+]c2c1 | > 100 | > 100 | > 100 | > 100 | > 100 | > 100 | > 100 | > 100 |  |  |  |  |  | > 100 |  |  |  |  |  | 
15 | CCC/C(=N/NC(=O)C(N)=O)C(CC)C(=O)CCC(=O)N(Cc1ccccc1)Cc1ccccc1 (stereo not given) | > 100 | > 100 | > 100 | > 100 | > 100 | > 100 | > 100 | > 100 |  |  |  |  |  | > 100 |  |  |  |  |  | 
16 | CCOc1ccccc1NC(=O)CC1SC(=Nc2ccc([N+](=O)[O-])cc2)NC1=O (stereo not given) | 52.7 | 50.9 | 70 | 34.9 | 38.9 |  | > 100 | 35.1 |  |  |  |  |  | 25.8 |  |  |  |  |  | 
17 | N#CC(C(=O)CCC(=O)C(C#N)c1ccccc1)c1ccccc1 (stereo not given) | > 100 | > 100 | > 100 | > 100 | > 100 | > 100 | > 100 | > 100 |  |  |  |  |  | > 100 |  |  |  |  |  | 
18 | O=C1C(Cl)=C(Nc2cccc(Cl)c2)C(=O)N1Cc1ccccc1Cl | 18.6 | 19.4 | 34.2 | 20.9 | 26.5 | 38.2 | 36 |  | 2.82 | 4.41 | 9.95 | 0.476 | 8.28 | 32.4 | 10.2 | 3.96 | 13.1 |  |  | 
19 | O=C1NC(=O)C2C(=O)NC(=O)C1C2(c1ccccc1)c1cc[nH]c1 (stereo not given) | > 100 | > 100 | > 100 | > 100 | > 100 | > 100 | > 100 | > 100 |  |  |  |  |  | > 100 |  |  |  |  |  | 
20 | CCC1(c2c(F)c(F)c(N)c(F)c2F)CCC(=O)NC1=O (stereo not given) | > 100 | > 100 | > 100 | > 100 | > 100 | > 100 | > 100 | > 100 |  |  |  |  |  | > 100 |  |  |  |  |  | 
21 | CC(=O)[CH-]C(=O)c1ccccc1.CC(=O)[CH-]C(=O)c1ccccc1.CC1(C)C2CCC1(C)C([O-])C2.CC1(C)C2CCC1(C)C([O-])C2.[Ti+4] | > 100 | 44.1 | > 100 | > 100 | > 100 | > 100 | > 100 | > 100 | 36.6 | 20.4 | 34.1 | 38.9 | 12.9 | 34.9 | 23.9 | 30.9 | 34.8 | 38.4 |  | 
22 | CC1(c2cccc3ccccc23)OC(=O)c2ccccc21 (stereo not given) | 68.2 | 37.2 | 75.8 | 54.5 | 49.7 | 63.7 | 93 | 29.8 |  |  |  |  |  | 36.5 |  |  |  |  |  | 
23 | COC(=O)C(=O)OC1(C(C)=O)CC2(c3ccccc3)OC1(c1ccccc1)c1ccccc12 (stereo not given) | 30.3 | 31.9 |  | 31.4 | 31.3 | 34.1 | 44 | 29.5 |  |  |  |  |  | 27 |  |  |  |  |  | 
24 | Oc1ccccc1C=NCc1ccco1 | > 100 | > 100 | > 100 | > 100 | > 100 |  | > 100 |  |  |  |  |  |  |  |  |  |  |  |  | 
25 | BrC1=CC=C2NC=CC3=CC=NC1C32 (stereo not given) | > 60.6 | 56.2 | > 100 | > 100 |  | > 100 | > 92.5 | 58.5 |  |  |  |  |  | 71.2 |  |  |  |  |  | 
26 | C=C1C(=O)O[C@H]2[C@H]1CC/C(Cn1cc(-c3cc(C(F)(F)F)cc(C(F)(F)F)c3)nn1)=C\CC[C@@]1(C)O[C@@H]21 | 0.399 | 1.55 | 1.65 | 2.53 | 3.01 | 0.454 | 2.49 | 0.364 | 0.19 | 0.357 | 0.465 | 1.19 | 0.344 | 1.44 | 1.36 | 0.191 | 1.08 | 0.141 |  | 
27 | N/C(=C\c1ccc(OCc2ccccc2)c(OCc2ccccc2)c1[N+](=O)[O-])C(=O)O | > 100 | > 100 | > 100 | > 100 | > 100 |  | > 100 | > 100 |  |  |  |  |  | > 100 |  |  |  |  |  | 
28 | N#CC(C(=O)/C(=N/N)C(C#N)c1ccccc1)c1ccccc1 (stereo not given) | > 100 | > 100 | > 100 | > 100 | > 100 | > 100 | > 100 |  |  |  |  |  |  | > 100 |  |  |  |  |  | 
